Reference: patent publication US20250154154A1 (Relay Binney Street, 2nd Floor, priority 2020, published 2025)

Columns and labels:
[1] = biological target: SRC (Homo sapiens, UniProt P12931); experiment: SRC Biochemical Assay Protocol (microfluidic mobility shift assay, FLPeptide4 substrate)
In short: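 Recombinant SRC (0.26 nM) preincubated 30 min at RT with compound (0.0017–100 μM) and 1.5 μM FLPeptide4, then 50 μM ATP added; 90 min reaction in HEPES pH 7.4, 10 mM MgCl2, 1% DMSO, EDTA-quenched. Phosphopeptide quantified by microfluidic mobility shift; IC50 from 4-parameter logistic fit.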

[2] = test system: RBE cells; experiment: Cell Viability Protocol (CellTiterGlo), RBE cells; type: cell-based; conditions: RBE or SNU-1079 cells, 72 or 120 hour, cell line and time not given
In short: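 RBE cells plated at 1200/well in RPMI 1640 with 10% FBS, incubated 24 h, then dosed with compound from DMSO stocks and incubated 72 or 120 h at 37° C. CellTiterGlo luminescence normalised to DMSO control; IC50 from 4-parameter fit.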

[3] = test system: phospho-S6RP (Ser 235/236) in RBE cells; experiment: Cellular Proliferation Protocol (cellular phospho-S6RP HTRF), RBE cells; type: cell-based; conditions: 6 hours treatment, RBE or SNU-1079 cells, cell line not given
Experimental: Cellular Proliferation Protocol
Cellular phospho-S6RP (Ser 235/236) was measured using a Fluorescence Resonance Energy Transfer (FRET) sandwich assay format (Cisbio HTRF Cat. No. 64RP6PEG). This format uses 2 different, labelled antibodies (Eu^3+-Cryptate donor and d2 acceptor) that positively modulate a specific signal in proportion to phospho-S6RP (Ser 235/236) directly in cells. RBE or SNU-1079 cells were cultivated in T-75 flasks at 37° C., 5% CO2, 95% relative humidity in RPMI 1640 medium with 10% FBS and 1% Penicillin/Streptomycin and detached with trypsin/EDTA at 80-90% confluency. Cells were then seeded in 40 μL volume per well in 384-well flat-bottom polystyrene microplates (Corning Cat. No. 3570) at a seeding density of 2000 cells/well for RBE and 3000 cells/well for SNU-1079 followed by 24 hour incubation at 37° C., 5% CO2, 95% relative humidity. On the next day, compounds were diluted to […] the indicated concentrations and 40 nL of these treatment compounds, along with DMSO vehicle control, were added to the cells (final concentration of compounds is then the indicated concentrations). Treatment was carried out for 6 hours at 37° C., 5% CO2, 95% relative humidity after which the plates were cooled to room temperature before aspirating the medium. Cells were then lysed on a shaker for 45 minutes at room temperature with 20 μL of 1× supplemented lysis buffer per well. After lysis, 5 μL of pre-mixed antibodies was added per well. Plates were covered with black sealing film and incubated overnight at room temperature on a shaker before being read on a PerkinElmer EnVision microplate reader. Percent activation was calculated relative to DMSO control and IC50 values were obtained from dose-response data fitted to a 4-parameter curve.

Row | Compound | IC50 [1] [nM] | IC50 [2] [nM] | IC50 ([3]; 6 h) [nM] | IC50 [3] [nM]
1 | C=CC(=O)N1CC[C@@H](N2CC(C#Cc3c(-c4ccc(OC5CC5)c(OC)c4)c4c(N)ncnc4n3C)C2)[C@@H](O)C1 [II-68] | 1000 to 10000 | 1000 to 10000 | – | 10 to 1000
2 | Cc1ccnc(Oc2ccc(-c3c(C#C[C@@H]4[C@H]5CN(C(=O)/C=C/CN6CCC(F)C6)C[C@@H]45)n(C)c4ncnc(N)c34)cc2)c1 (stereo partly drawn) [II-240, (E)-1-((1R,5S,6s)-6-((4-amino-7-methyl-5-(4-((4-methylpyridin-2-yl)oxy)phenyl)-7H-pyrrolo[2,3-d]pyrimidin-6-yl)ethynyl)-3-azabicyclo[3.1.0]hexan-3-yl)-4-(3-fluoropyrrolidin-1-yl)but-2-en-1-one] | 10 to 1000 | 10 to 1000 | – | 10 to 1000
3 | Cn1c(C#CC2CCCN(C(=O)/C=C/CN3CC(F)C3)CC2)c(-c2ccc(Oc3ccccc3)cc2)c2c(N)ncnc21 (stereo not drawn) [II-184, (E)-1-(4-((4-amino-7-methyl-5-(4-phenoxyphenyl)-7H-pyrrolo[2,3-d]pyrimidin-6-yl)ethynyl)azepan-1-yl)-4-(3-fluoroazetidin-1-yl)but-2-en-1-one] | 10 to 1000 | 1000 to 10000 | 1000 to 10000 | –
4 | C=CC(=O)N1CC2C(C#Cc3c(-c4cccc5c4OC(F)(F)O5)c4c(N)ncnc4n3C)C2C1 (stereo not drawn) [II-129] | 1000 to 10000 | 10 to 1000 | – | 1000 to 10000
5 | C=CC(=O)N1CC[C@@H](N2CC(C#Cc3c(-c4ccc(Cl)c(OC)c4)c4c(N)ncnc4n3CCOC)C2)[C@@H](O)C1 [II-56] | 10 to 1000 | 10 to 1000 | – | 10 to 1000
6 | C=CC(=O)N[C@H](C)C(=O)N1CCC(C#Cc2c(-c3ccc(Oc4ccccc4)cc3)c3c(N)ncnc3n2[C@H]2CCOC2)CC1 [II-185, N-((R)-1-(4-((4-amino-5-(4-phenoxyphenyl)-7-((S)-tetrahydrofuran-3-yl)-7H-pyrrolo[2,3-d]pyrimidin-6-yl)ethynyl)piperidin-1-yl)-1-oxopropan-2-yl)acrylamide] | 10 to 1000 | 1000 to 10000 | 1000 to 10000 | –
7 | C=CC(=O)N1CC[C@@H](N2CC(C#Cc3c(-c4ccc5c(c4)OCCO5)c4c(N)ncnc4n3C)C2)[C@@H](O)C1 [II-74] | 10 to 1000 | 10 to 1000 | – | 10 to 1000
8 | COCCN(C)C/C=C/C(=O)N1C[C@@H]2[C@@H](C#Cc3c(-c4ccc(Oc5cccc(C)n5)c(OC)c4)c4c(N)ncnc4n3C)[C@@H]2C1 [II-237, (E)-1-((1R,5S,6s)-6-((4-amino-5-(3-methoxy-4-((6-methylpyridin-2-yl)oxy)phenyl)-7-methyl-7H-pyrrolo[2,3-d]pyrimidin-6-yl)ethynyl)-3-azabicyclo[3.1.0]hexan-3-yl)-4-((2-methoxyethyl) (methyl)amino)but-2-en-1-one] | 10 to 1000 | 10 to 1000 | 10 to 1000 | –
9 | C=CC(=O)N1CCC(C#Cc2c(-c3ccc(Oc4ccccc4)cc3)c3c(N)ncnc3n2C2CCNCC2)CC1 [Example I-40] | 10 to 1000 | 1000 to 10000 | 1000 to 10000 | –
10 | C=CC(=O)N1CC[C@@H](N2CC(C#Cc3c(-c4ccc(Cl)c(F)c4)c4c(N)ncnc4n3C)C2)[C@@H](O)C1 [II-66] | 10 to 1000 | 10 to 1000 | – | 10 to 1000
11 | C=CC(=O)N1CCC(N2CC(C#Cc3c(-c4cccc5c4cnn5C)c4c(N)ncnc4n3C)C2)CC1 [II-93] | 1000 to 10000 | 1000 to 10000 | – | 1000 to 10000
12 | C=CC(=O)N1CCC(C#Cc2c(-c3ccc(Oc4ccccc4)cc3)c3c(N)ncnc3n2C2CCN(C)C2=O)CC1 (stereo not drawn) [Example I-56] | 10 to 1000 | 10 to 1000 | 10 to 1000 | –
13 | 1-((3R,4S)-4-(3- ((4-amino-5-(4-(3- fluorophenoxy) phenyl)-7-methyl-7H- pyrrolo[2,3- d]pyrimidin-6- yl)ethynyl)azetidin- 1-yl)-3- hydroxypiperidin- 1-yl)prop-2-en-1- one [II-249] | 10 to 1000 | ≤ 10 | – | ≤ 10
14 | C=CC(=O)N1C[C@@H]2[C@@H](C#Cc3c(-c4ccc(Oc5ccccc5)cc4Cl)c4c(N)ncnc4n3C)[C@@H]2C1 [II-48] | 10 to 1000 | ≤ 10 | – | ≤ 10
15 | C=CC(=O)N1CCC(N2CC(C#Cc3c(-c4ccc(Oc5ccccc5)cc4)c4c(N)ncnc4n3CCO)C2)CC1 [II-190, 1-(4-(3-((4-amino-7-(2-hydroxyethyl)-5-(4-phenoxyphenyl)-7H-pyrrolo[2,3-d]pyrimidin-6-yl)ethynyl)azetidin-1-yl)piperidin-1-yl)prop-2-en-1-one] | 10 to 1000 | ≤ 10 | 10 to 1000 | –
16 | C=CC(=O)N1CC[C@@H](N2CC(C#Cc3c(-c4ccc(OC)c(OC)c4)c4c(N)ncnc4n3C)C2)[C@@H](O)C1 [II-76] | 10 to 1000 | 1000 to 10000 | – | 1000 to 10000

Continued, in another order:

Row | IC50 [1] [nM] | Compound | IC50 [2] [nM] | IC50 ([3]; 6 h) [nM] | IC50 [3] [nM]
17 | 10 to 1000 | Cc1cccc(Oc2ccc(-c3c(C#C[C@@H]4[C@H]5CN(C(=O)/C=C/CN6CCC(F)C6)C[C@@H]45)n(C)c4ncnc(N)c34)cc2)n1 (stereo partly drawn) [II-230, (E)-1-((1R,5S,6s)-6-((4-amino-7-methyl-5-(4-((6-methylpyridin-2-yl)oxy)phenyl)-7H-pyrrolo[2,3-d]pyrimidin-6-yl)ethynyl)-3-azabicyclo[3.1.0]hexan-3-yl)-4-(3-fluoropyrrolidin-1-yl)but-2-en-1-one] | 10 to 1000 | 10 to 1000 | –
18 | 10 to 1000 | C=CC(=O)N1CCC(N2CC(C#Cc3c(-c4ccc(Oc5ccccc5)cn4)c4c(N)ncnc4n3C)C2)CC1 [II-313] | 10 to 1000 | – | 10 to 1000
19 | 10 to 1000 | C=CC(=O)N1CC[C@@H](N2CC(C#Cc3c(-c4cccc(OC)n4)c4c(N)ncnc4n3C)C2)[C@@H](O)C1 [II-61] | 1000 to 10000 | – | 10 to 1000
20 | ≤ 10 | CC(C)n1c(C#C[C@@H]2[C@H]3CN(C(=O)/C=C/CN(C)C)C[C@@H]23)c(-c2ccc(F)c3c2OCO3)c2c(N)ncnc21 [II-293] | ≤ 10 | ≤ 10 | –
21 | ≤ 10 | C=CC(=O)N1CCC(N2CC(C#Cc3c(-c4ccc(Cl)cc4)c4c(N)ncnc4n3C(C)C)C2)CC1 [II-84] | 10 to 1000 | – | 10 to 1000
22 | ≤ 10 | C=CC(=O)N1CCC(N2CC(C#Cc3c(-c4ccc(F)c5c4OCO5)c4c(N)ncnc4n3CC)C2)CC1 [II-290] | 10 to 1000 | 10 to 1000 | –
23 | 10 to 1000 | C=CC(=O)N1C[C@@H]2[C@@H](C#Cc3c(-c4ccc(Oc5ccccn5)cc4)c4c(N)ncnc4n3C3CCOC3)[C@@H]2C1 (mixture of isomers) [II-23] | ≤ 10 | – | ≤ 10
24 | 10 to 1000 | C/C=C/C(=O)N1CC(N2CCC(C#Cc3c(-c4ccc(Oc5ccccc5)cc4)c4c(N)ncnc4n3C(C)C)CC2)C1 [Example I-51] | 10 to 1000 | ≤ 10 | –
25 | ≤ 10 | C=CC(=O)N1CCC(C#Cc2c(-c3ccc(Oc4ccccc4)cc3)c3c(N)ncnc3n2C(C)C)C1 (stereo not drawn) [Example I-5] | ≤ 10 | ≤ 10 | –
26 | 10 to 1000 | C=CC(=O)N1CCC(N2CC(C#Cc3c(-c4ccc(Cl)cn4)c4c(N)ncnc4n3C)C2)CC1 [II-325] | 1000 to 10000 | – | 1000 to 10000
27 | ≤ 10 | C=CC(=O)N1CCC(N2CC(C#Cc3c(-c4ccc(F)c5c4OCO5)c4c(N)ncnc4n3C(C)C)C2)CC1 [II-134] | 10 to 1000 | – | 10 to 1000
28 | ≤ 10 | C=CC(=O)N1CCC(N2CC(C#Cc3c(-c4ccc(Oc5ccccc5)c(OC)c4)c4c(N)ncnc4n3C)C2)C[C@H]1CO (stereo partly drawn) [II-248, 1-((2S)-4-(3-((4-amino-5-(3-methoxy-4-phenoxyphenyl)-7-methyl-7H-pyrrolo[2,3-d]pyrimidin-6-yl)ethynyl)azetidin-1-yl)-2-(hydroxymethyl)piperidin-1-yl)prop-2-en-1-one] | 10 to 1000 | 10 to 1000 | –
29 | ≤ 10 | C=CC(=O)N1CCC(N2CC(C#Cc3c(-c4ccc(Cl)c(OC)n4)c4c(N)ncnc4n3C(C)C)C2)CC1 [II-327] | 10 to 1000 | – | 10 to 1000
30 | ≤ 10 | C=CC(=O)N1CC2C(C#Cc3c(-c4cccc5c4OCO5)c4c(N)ncnc4n3C)C2C1 (stereo not drawn) [II-126] | 10 to 1000 | – | 10 to 1000
31 | ≤ 10 | C=CC(=O)N1C[C@@H]2[C@@H](C#Cc3c(-c4ccc(F)c5c4OCO5)c4c(N)ncnc4n3C(C)C)[C@@H]2C1 [II-131] | ≤ 10 | – | ≤ 10
